Assay [1] has as its target T1, 5-HT7R (Homo sapiens (Human), UniProt P34969). In words: Tango assay (β-arrestin signaling system). The conditions noted are these: HTLA cells transfected with 5-HT7R-TCS-tTA construct. Format: cell-based. Here is the method: Tango assay was conducted using HTLA cells in order to investigate the activity of the β-arrestin signaling system. Prior to transfection, the culture medium was replaced from DMEM containing 10% FBS, 100 U/mL penicillin, 100 μg/mL streptomycin, 2 μg/mL puromycin and 100 μg/mL hygromycin B to DMEM containing 10% dialyzed FBS, 100 U/mL penicillin and 100 μg/mL streptomycin. 4 hours later, transfection was conducted using 20 μg of a 5-HT7R-TCS-tTA construct (5-HT7R Tango DNA). The transfected cells were prepared on a white, flat, clear-bottom, 384-well plate (Greiner) (15,000 cells/well, 20 μL/well) using DMEM containing 10% dialyzed FBS, 100 U/mL penicillin and 100 μg/mL streptomycin. 6 hours later, after removing the culture medium, the cells were treated with 10 μL of the compound solution. After culturing for 22 hours and removing the culture medium, the cells were treated with 20 μL of a BrightGlo reagent (Promega) diluted in a 1×HBSS, […], pH 7.4 buffer. After measuring luminescence using a Tecan microplate reader (Spark), IC50 value was obtained using the Prism 8.0 program (GraphPad Software).

The target of assay [2] is T1, 5-HT7R. In words: cAMP assay (luminescence-based, GloSensor). Format: cell-based. The conditions noted are these: HEK293 cells transfected with human 5-HT7R and GloSensor-22F. Here is the method:
For luminescence-based cAMP assay, HEK293 cells were cultured on a 150-mm dish. Prior to transfection, the culture medium was replaced from DMEM containing 10% FBS, 100 U/mL penicillin and 100 μg/mL streptomycin to DMEM containing 10% dialyzed FBS, 100 U/mL penicillin and 100 μg/mL streptomycin. 4 hours later, transfection was conducted using 10 μg of a human 5-HT7R plasmid and 10 μg of a GloSensor-22F plasmid (Promega). The transfected cells were prepared on a white, flat, clear-bottom, 384-well plate (Greiner) (15,000 cells/well, 20 μL/well). 6 hours later, after removing the culture medium, the cells were treated with 20 μL of a 3% Glosensor cAMP reagent containing luciferin in a 1×HBSS, […], pH 7.4 buffer. In addition, the compound of each of the examples was prepared at different concentrations in an assay buffer containing 0.1% bovine serum albumin. 30 minutes later, 10 μL of the compound solution was treated to the cells. After measuring luminescence using a Tecan microplate reader (Spark), IC50 value was obtained using the Prism 8.0 program (GraphPad Software).
In general terms: Changes in cAMP serve as a functional read-out for many G protein-coupled receptors.

T1 sequence (P34969 whole entry): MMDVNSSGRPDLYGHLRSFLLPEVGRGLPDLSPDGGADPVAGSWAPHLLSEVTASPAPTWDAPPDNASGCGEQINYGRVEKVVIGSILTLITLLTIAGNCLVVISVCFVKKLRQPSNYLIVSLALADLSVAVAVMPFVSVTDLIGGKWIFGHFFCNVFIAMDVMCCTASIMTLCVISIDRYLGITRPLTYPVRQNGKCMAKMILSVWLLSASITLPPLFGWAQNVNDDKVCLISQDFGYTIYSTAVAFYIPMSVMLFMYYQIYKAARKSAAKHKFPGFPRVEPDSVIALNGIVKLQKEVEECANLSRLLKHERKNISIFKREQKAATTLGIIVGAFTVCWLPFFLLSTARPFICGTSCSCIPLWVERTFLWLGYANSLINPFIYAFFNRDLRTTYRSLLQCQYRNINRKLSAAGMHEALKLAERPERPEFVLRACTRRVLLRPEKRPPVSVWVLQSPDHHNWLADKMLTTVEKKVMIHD

As for `c1ccc(-c2cccc(CN3CCCC3)c2)cc1` [Compound 1, 1-([1,1′-biphenyl]-3-ylmethyl)pyrrolidine], the figures for the inhibition at 10 µM in assay [1] and in assay [2] were 17.5% and 42.1%, respectively. This compound also yielded a half-maximal inhibitory concentration (IC50) in assay [1] of 22.9 µM.

In the case of `Clc1cccc(-c2cccc(CN3CCCC3)c2)c1` [Compound 3, 1-((3′-chloro-[1,1′-biphenyl]-3-yl)methyl)pyrrolidine], the inhibition at 10 µM in assay [1] is 33.2%. In assay [2], the inhibition at 10 µM turned out to be 85.9% and the IC50 turned out to be 4.88 µM.

In the case of `Clc1ccc(-c2cccc(CN3CCCC3)c2)cc1` [Compound 4, 1-((4′-chloro-[1,1′-biphenyl]-3-yl)methyl)pyrrolidine], the figures for the inhibition at 10 µM in assay [1] and in assay [2] were 14.1% and 38.1%, respectively.

As for `Cc1ccccc1-c1cccc(CN2CCCC2)c1` [Compound 5, 1-((2′-methyl-[1,1′-biphenyl]-3-yl)methyl)pyrrolidine], the inhibition at 10 µM in assay [1] turned out to be 25%; in assay [2], 49.5%.

Take `Cc1cccc(-c2cccc(CN3CCCC3)c2)c1` [Compound 6, 1-((3′-methyl-[1,1′-biphenyl]-3-yl)methyl)pyrrolidine]: the inhibition at 10 µM in assay [1] came to 22%; in assay [2] it was 38.9%.

Regarding `Cc1ccc(-c2cccc(CN3CCCC3)c2)cc1` [Compound 7, 1-((4′-methyl-[1,1′-biphenyl]-3-yl)methyl)pyrrolidine], the inhibition at 10 µM in assay [1] came out at 20.6%; in assay [2] it was 32.5%.

For `COc1ccccc1-c1cccc(CN2CCCC2)c1` [Compound 8, 1-((2′-methoxy-[1,1′-biphenyl]-3-yl)methyl)pyrrolidine], the values for the inhibition at 10 µM in assay [1] and in assay [2] were 18% and 57.1%, respectively.

`COc1cccc(-c2cccc(CN3CCCC3)c2)c1` [Compound 9, 1-((3′-methoxy-[1,1′-biphenyl]-3-yl)methyl)pyrrolidine]: in assay [1], the inhibition at 10 µM stood at 16.7%. In assay [2], this compound registered an inhibition at 10 µM of 67.2% and a 50% inhibitory concentration (IC50) of 6.44 µM.

With `COc1ccc(-c2cccc(CN3CCCC3)c2)cc1` [Compound 10, 1-((4′-methoxy-[1,1′-biphenyl]-3-yl)methyl)pyrrolidine], the values for the inhibition at 10 µM in assay [1] and in assay [2] were 23.1% and 37.9%, respectively.

As for `COc1cccc(OC)c1-c1cccc(CN2CCCC2)c1` [Compound 11, 1-((2′,6′-dimethoxy-[1,1′-biphenyl]-3-yl)methyl)pyrrolidine], the inhibition at 10 µM came to 5.1% in assay [1] and 32.8% in assay [2].

Regarding `Clc1ccc(CN2CCCC2)cc1-c1ccccc1` [Compound 12, 1-((6-chloro-[1,1′-biphenyl]-3-yl)methyl)pyrrolidine], the inhibition at 10 µM stood at 26.1% in assay [1] and 80.8% in assay [2]. In assay [2], this compound had a 50% inhibitory concentration (IC50) of 4.89 µM.

Take `Clc1ccccc1-c1cc(CN2CCCC2)ccc1Cl` [Compound 13, 1-((2′,6-dichloro-[1,1′-biphenyl]-3-yl)methyl)pyrrolidine]: in assay [1], the inhibition at 10 µM came out at 50.5%. In assay [2], this compound yielded an inhibition at 10 µM of 90.7% and a half-maximal inhibitory concentration (IC50) of 3.2 µM.

Take `Clc1cccc(-c2cc(CN3CCCC3)ccc2Cl)c1` [Compound 14, 1-((3′,6-dichloro-[1,1′-biphenyl]-3-yl)methyl)pyrrolidine]: the inhibition at 10 µM in assay [1] worked out at 27.9%; in assay [2] it was 51.1%.

For `Clc1ccc(-c2cc(CN3CCCC3)ccc2Cl)cc1` [Compound 15, 1-((4′,6-dichloro-[1,1′-biphenyl]-3-yl)methyl)pyrrolidine], the inhibition at 10 µM in assay [1] came out at 34.3%. Moreover, in assay [2], at 10 µM the inhibition was 63.8% and the half-maximal inhibitory concentration (IC50) was found to be 7.15 µM.

Take `Cc1ccccc1-c1cc(CN2CCCC2)ccc1Cl` [Compound 16, 1-((6-chloro-2′-methyl-[1,1′-biphenyl]-3-yl)methyl)pyrrolidine]: testing at 10 µM in assay [1] gave an inhibition of 30.9%. In assay [2], testing at 10 µM gave an inhibition of 73.3% and the 50% inhibitory concentration (IC50) turned out to be 6.42 µM.

Take `Cc1cccc(-c2cc(CN3CCCC3)ccc2Cl)c1` [Compound 17, 1-((6-chloro-3′methyl-[1,1′-biphenyl]-3-yl)methyl)pyrrolidine]: the results for the inhibition at 10 µM in assay [1] and in assay [2] were 11.4% and 51.8%, respectively.

Take `Cc1ccc(-c2cc(CN3CCCC3)ccc2Cl)cc1` [Compound 18, 1-((6-chloro-4′methyl-[1,1′-biphenyl]-3-yl)methyl)pyrrolidine]: the inhibition at 10 µM in assay [1] was 21.5%; in assay [2], 73.4%. The compound also yielded an IC50 in assay [2] of 8.2 µM.

`COc1ccccc1-c1cc(CN2CCCC2)ccc1Cl` [Compound 19, 1-((6-chloro-2′-methoxy-[1,1′-biphenyl]-3-yl)methyl)pyrrolidine]: the results for the inhibition at 10 µM in assay [1] and in assay [2] were 19.7% and 51.8%, respectively.

`COc1cccc(-c2cc(CN3CCCC3)ccc2Cl)c1` [Compound 20, 1-((6-chloro-3′methoxy-[1,1′-biphenyl]-3-yl)methyl)pyrrolidine] came in with an inhibition at 10 µM in assay [1] of 26%. In assay [2], this compound gave an inhibition at 10 µM of 70.1% and an IC50 of 7.48 µM.

`COc1ccc(-c2cc(CN3CCCC3)ccc2Cl)cc1` [Compound 21, 1-((6-chloro-4′-methoxy-[1,1′-biphenyl]-3-yl)methyl)pyrrolidine]: the inhibition at 10 µM was determined as 18.6% in assay [1] and 44.7% in assay [2].

`COc1ccccc1-c1c(Cl)ccc(CN2CCCC2)c1OC` [Compound 22, 1-((6-chloro-2,6′-dimethoxy-[1,1′-biphenyl]-3-yl)methyl)pyrrolidine]: the inhibition at 10 µM came to 3.3% in assay [1] and 42.7% in assay [2].

In the case of `Clc1ccccc1-c1cccc(C2=NCCN2)c1` [Compound 24, 2-(2′-chloro-[1,1′-biphenyl]-3-yl)-4,5-dihydro-1H-imidazole], the inhibition at 10 µM in assay [1] was determined as 36%; in assay [2] it was 47.6%.

With `Clc1cccc(-c2cccc(C3=NCCN3)c2)c1` [Compound 25, 2-(3′-chloro-[1,1′-biphenyl]-3-yl)-4,5-dihydro-1H-imidazole], in assay [1], the inhibition at 10 µM came to 43.6% and the half-inhibitory concentration (IC50) came out at 10.5 µM. In assay [2], this compound yielded an inhibition at 10 µM of 50.9%.

In the case of `Clc1ccc(-c2cccc(C3=NCCN3)c2)cc1` [Compound 26, 2-(4′-chloro-[1,1′-biphenyl]-3-yl)-4,5-dihydro-1H-imidazole], the inhibition at 10 µM came to 23.1% in assay [1] and 43% in assay [2].

Consider `Cc1ccccc1-c1cccc(C2=NCCN2)c1` [Compound 27, 2-(2′-methyl-[1,1′-biphenyl]-3-yl)-4,5-dihydro-1H-imidazole], for which the inhibition at 10 µM came out at 23% in assay [1] and 55.3% in assay [2].

For `Cc1cccc(-c2cccc(C3=NCCN3)c2)c1` [Compound 28, 2-(3′-methyl-[1,1′-biphenyl]-3-yl)-4,5-dihydro-1H-imidazole], the inhibition at 10 µM in assay [1] came out at 28.8%; in assay [2] it was 44.6%.

Consider `Cc1ccc(-c2cccc(C3=NCCN3)c2)cc1` [Compound 29, 2-(4′-methyl-[1,1′-biphenyl]-3-yl)-4,5-dihydro-1H-imidazole], for which the inhibition at 10 µM in assay [1] turned out to be 17.2%; in assay [2], 35.2%.

The compound `COc1cccc(-c2cccc(C3=NCCN3)c2)c1` [Compound 31, 2-(3′-methoxy-[1,1′-biphenyl]-3-yl)-4,5-dihydro-1H-imidazole] had an inhibition at 10 µM in assay [1] of 27.8%. In assay [2], this compound registered an inhibition at 10 µM of 72.5% and an IC50 of 5.77 µM.

With `COc1ccc(-c2cccc(C3=NCCN3)c2)cc1` [Compound 32, 2-(4′-methoxy-[1,1′-biphenyl]-3-yl)-4,5-dihydro-1H-imidazole], the inhibition at 10 µM in assay [1] turned out to be 11.9%; in assay [2] it was 40.8%.

Take `COc1cccc(OC)c1-c1cccc(C2=NCCN2)c1` [Compound 33, 2-(2′,6′-dimethoxy-[1,1′-biphenyl]-3-v1)-4 1 5-dihydro-1H-imidazole]: the figures for the inhibition at 10 µM in assay [1] and in assay [2] were 14% and 32.8%, respectively.

Regarding `Clc1ccc(C2=NCCN2)cc1-c1ccccc1` [Compound 34, 2-(6-chloro-[1,1′-biphenyl]-3-yl)-4,5-dihydro-1H-imidazole], the inhibition at 10 µM in assay [1] amounted to 31.6%; in assay [2] it was 48.4%.

With `Clc1ccccc1-c1cc(C2=NCCN2)ccc1Cl` [Compound 35, 2-(2′,6-dichloro-[1,1′-biphenyl]-3-yl)-4,5-dihydro-1H-imidazole], in assay [1], at 10 µM the inhibition was 42% and the IC50 came to 20.4 µM. In assay [2], this compound registered an inhibition at 10 µM of 53.8%.

As a reminder, the inhibition is the relative decrease from the control value, in per cent. Read a low inhibition as a response near the control. In general, IC50 refers to the point on the concentration scale where inhibition reaches its midpoint. Read a low IC50 as higher potency.
